Laboratory results: US6933131B2, “Nucleic acids encoding insect acetylcholine receptor subunits” (Bayer Aktiengesellschaft, priority 1998, dated 2005)

Tested on: acetylcholine receptors according to the invention (recombinantly modified HEK293 cells of Example 2)
Conditions: nicotine final concentration 500 μM; HEK293 cells expressing the α subunit of an L-type Ca channel, recombinantly modified as in Example 2; FIG. 1
Description: Cells were loaded with Fura-2-acetoxymethyl ester (5-10 μM in serum-free minimal essential medium containing 1% bovine serum albumin and 5 mM calcium chloride), washed with Tyrode solution buffered with N-(2-hydroxyethyl)piperazine-N′-(2-ethanesulphonic acid) (5 mM HEPES) and alternately illuminated, under a fluorescence microscope (Nikon Diaphot) with light of 340 nm and 380 nm wavelength. A measurement point corresponds to a pair of video images at the two wavelengths (exposure time per image, 100 ms). The time interval between two measurement points is 3 s. […] The fluorescence intensity of the cells when illuminated with light of 380 nm wavelength was divided by the corresponding intensity at 340 nm, thereby giving the ratio.
HEK293 cells, which express the α subunit of an L-type Ca channel (Zong et al. 1995, Stetzer et al. 1996), were cultured in Dulbecco's modified Eagle's medium and 10% foetal calf serum at 5% CO2 and from 20° C. to 37° C. […] Individual resistant clones were analyzed as described below.
The alterations in the intracellular calcium concentration were measured using Fura-2. […] 100 μl Tyrode buffer were added to the wells of the microtitre plate and the cells were illuminated alternately, under a fluorescence microscope (Nikon Diaphot), with light of 340 nm and 380 nm wavelength. […]

CN1CCCC1c1cccnc1 (stereo not shown) [nicotine]
change in intracellular calcium (Fura-2 fluorescence ratio 380 nm/340 nm) following the addition of nicotine: increase in intracellular calcium
